Source: ChEMBL document CHEMBL4043269, “Synthesis and structure activity relationships of carbamimidoylcarbamate derivatives as novel vascular adhesion protein-1 inhibitors” (Bioorg Med Chem, 2017)

Legend:
[1] = biological target: CYP2C19 (Homo sapiens, UniProt P33261); experiment: Inhibition of CYP2C19 in human liver microsomes using S-mephenytoin as substrate assessed as residual activity at 5 uM after 20 mins by HPLC analysis; assay type: ADME; settings: probe S-mephenytoin, read-out: Activity
Chain of CYP2C19 (P33261 whole entry): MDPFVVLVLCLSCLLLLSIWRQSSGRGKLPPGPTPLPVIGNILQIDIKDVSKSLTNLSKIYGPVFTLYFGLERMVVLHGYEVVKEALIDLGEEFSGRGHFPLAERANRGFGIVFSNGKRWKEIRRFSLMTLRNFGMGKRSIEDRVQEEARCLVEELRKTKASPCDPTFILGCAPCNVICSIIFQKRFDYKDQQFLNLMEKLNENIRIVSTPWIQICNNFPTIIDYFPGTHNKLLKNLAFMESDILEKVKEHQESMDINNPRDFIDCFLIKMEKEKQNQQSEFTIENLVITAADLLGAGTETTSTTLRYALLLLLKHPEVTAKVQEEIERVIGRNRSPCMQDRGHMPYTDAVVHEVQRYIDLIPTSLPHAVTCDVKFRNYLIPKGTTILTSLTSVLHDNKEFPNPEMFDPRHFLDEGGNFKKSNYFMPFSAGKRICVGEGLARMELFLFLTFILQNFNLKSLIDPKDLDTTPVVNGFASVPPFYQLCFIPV

[2] = biological target: CYP2D6 (Homo sapiens, UniProt P10635); experiment: Inhibition of CYP2D6 in human liver microsomes using dextromethorphan as substrate assessed as residual activity at 5 uM after 20 mins by HPLC analysis; assay type: ADME; settings: probe dextromethorphan, read-out: Activity
Chain of CYP2D6 (P10635 whole entry): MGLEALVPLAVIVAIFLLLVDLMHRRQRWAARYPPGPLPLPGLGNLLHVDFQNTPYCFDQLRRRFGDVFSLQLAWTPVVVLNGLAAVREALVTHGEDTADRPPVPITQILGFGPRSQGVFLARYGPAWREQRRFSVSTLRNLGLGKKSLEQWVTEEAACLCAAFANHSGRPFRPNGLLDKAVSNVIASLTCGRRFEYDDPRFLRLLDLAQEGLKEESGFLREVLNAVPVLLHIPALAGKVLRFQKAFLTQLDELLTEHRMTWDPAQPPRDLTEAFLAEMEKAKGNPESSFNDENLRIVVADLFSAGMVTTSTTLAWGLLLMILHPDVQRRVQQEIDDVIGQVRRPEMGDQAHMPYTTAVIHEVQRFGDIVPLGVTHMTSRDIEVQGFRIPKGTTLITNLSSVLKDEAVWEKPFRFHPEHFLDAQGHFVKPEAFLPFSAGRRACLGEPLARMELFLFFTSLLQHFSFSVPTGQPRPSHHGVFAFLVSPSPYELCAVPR

[3] = biological target: T1, CYP2C8 (Homo sapiens, UniProt P10632); experiment: Inhibition of CYP2C8 in human liver microsomes using amodiaquine as substrate assessed as residual activity at 5 uM after 20 mins by HPLC analysis; assay type: ADME; settings: probe amodiaquine, read-out: Activity
T1 sequence (P10632 whole entry): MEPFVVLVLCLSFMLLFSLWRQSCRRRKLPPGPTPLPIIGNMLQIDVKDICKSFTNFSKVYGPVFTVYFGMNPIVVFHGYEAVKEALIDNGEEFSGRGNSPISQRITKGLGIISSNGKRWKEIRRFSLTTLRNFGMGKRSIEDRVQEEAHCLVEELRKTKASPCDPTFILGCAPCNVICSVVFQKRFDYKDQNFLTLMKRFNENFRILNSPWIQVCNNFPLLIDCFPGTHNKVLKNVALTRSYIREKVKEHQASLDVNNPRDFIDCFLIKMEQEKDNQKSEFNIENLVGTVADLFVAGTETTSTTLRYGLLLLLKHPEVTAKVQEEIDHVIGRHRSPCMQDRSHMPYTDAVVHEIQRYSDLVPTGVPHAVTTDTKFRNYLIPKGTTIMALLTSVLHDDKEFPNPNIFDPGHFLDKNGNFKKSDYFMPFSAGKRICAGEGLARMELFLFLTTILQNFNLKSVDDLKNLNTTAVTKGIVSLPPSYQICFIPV

[4] = biological target: T2, Amine oxidase [copper-containing] 3 (Homo sapiens, UniProt Q16853); experiment: Inhibition of human VAP-1 expressed in CHO cells preincubated for 20 mins followed by [14C]-benzylamine addition measured after 1 hr by scintillation spectrometric analysis; assay type: cell-based
T2 sequence (Q16853 whole entry): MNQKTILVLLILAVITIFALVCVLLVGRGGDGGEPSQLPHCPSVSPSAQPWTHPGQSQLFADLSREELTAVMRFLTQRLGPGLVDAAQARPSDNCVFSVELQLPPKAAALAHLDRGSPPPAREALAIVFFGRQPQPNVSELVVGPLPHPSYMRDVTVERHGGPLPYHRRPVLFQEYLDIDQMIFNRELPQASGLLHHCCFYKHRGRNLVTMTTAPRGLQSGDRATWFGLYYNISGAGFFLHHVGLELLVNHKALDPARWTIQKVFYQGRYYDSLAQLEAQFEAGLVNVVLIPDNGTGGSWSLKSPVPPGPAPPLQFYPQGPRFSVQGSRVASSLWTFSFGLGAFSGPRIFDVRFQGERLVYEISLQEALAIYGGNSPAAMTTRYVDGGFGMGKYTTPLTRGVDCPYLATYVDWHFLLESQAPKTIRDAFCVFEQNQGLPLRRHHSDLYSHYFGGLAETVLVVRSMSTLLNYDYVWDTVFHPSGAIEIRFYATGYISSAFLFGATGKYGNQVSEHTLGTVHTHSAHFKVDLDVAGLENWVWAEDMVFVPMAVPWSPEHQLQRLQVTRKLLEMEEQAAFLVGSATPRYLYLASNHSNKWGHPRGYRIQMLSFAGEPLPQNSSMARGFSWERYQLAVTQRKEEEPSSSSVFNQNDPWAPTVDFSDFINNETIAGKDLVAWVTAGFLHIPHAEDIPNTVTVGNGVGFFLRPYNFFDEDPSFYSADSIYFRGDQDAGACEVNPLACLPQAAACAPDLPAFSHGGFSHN

[5] = Aqueous solubility of compound in Japanese pharmacopoeia second fluid at pH 6.8 at 130 uM after 20 hrs by HPLC analysis; assay type: physicochemical
[6] = biological target: T3, CYP1A2 (Homo sapiens, UniProt P05177); experiment: Inhibition of CYP1A2 in human liver microsomes using phenacetin as substrate assessed as residual activity at 5 uM after 20 mins by HPLC analysis; assay type: ADME; settings: probe phenacetin, read-out: Activity
T3 sequence (P05177 whole entry): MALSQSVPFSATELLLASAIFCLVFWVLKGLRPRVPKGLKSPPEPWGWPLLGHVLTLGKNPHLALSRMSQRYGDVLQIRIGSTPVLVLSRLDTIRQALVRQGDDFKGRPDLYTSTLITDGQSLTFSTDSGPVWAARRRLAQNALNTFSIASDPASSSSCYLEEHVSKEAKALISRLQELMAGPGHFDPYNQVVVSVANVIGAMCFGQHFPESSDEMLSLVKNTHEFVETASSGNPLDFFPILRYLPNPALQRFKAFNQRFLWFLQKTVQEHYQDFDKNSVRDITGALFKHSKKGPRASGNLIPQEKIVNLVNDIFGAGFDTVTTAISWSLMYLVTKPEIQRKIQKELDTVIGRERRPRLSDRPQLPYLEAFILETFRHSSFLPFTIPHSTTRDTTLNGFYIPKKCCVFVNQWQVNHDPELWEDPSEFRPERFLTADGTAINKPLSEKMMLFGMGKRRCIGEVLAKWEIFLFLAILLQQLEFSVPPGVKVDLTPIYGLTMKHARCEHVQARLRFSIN

[7] = biological target: CYP3A4 (Homo sapiens, UniProt P08684); experiment: Inhibition of CYP3A4 in human liver microsomes using midazolam as substrate assessed as residual activity at 5 uM after 20 mins by HPLC analysis; assay type: ADME; settings: probe midazolam, read-out: Activity
Chain of CYP3A4 (P08684 whole entry): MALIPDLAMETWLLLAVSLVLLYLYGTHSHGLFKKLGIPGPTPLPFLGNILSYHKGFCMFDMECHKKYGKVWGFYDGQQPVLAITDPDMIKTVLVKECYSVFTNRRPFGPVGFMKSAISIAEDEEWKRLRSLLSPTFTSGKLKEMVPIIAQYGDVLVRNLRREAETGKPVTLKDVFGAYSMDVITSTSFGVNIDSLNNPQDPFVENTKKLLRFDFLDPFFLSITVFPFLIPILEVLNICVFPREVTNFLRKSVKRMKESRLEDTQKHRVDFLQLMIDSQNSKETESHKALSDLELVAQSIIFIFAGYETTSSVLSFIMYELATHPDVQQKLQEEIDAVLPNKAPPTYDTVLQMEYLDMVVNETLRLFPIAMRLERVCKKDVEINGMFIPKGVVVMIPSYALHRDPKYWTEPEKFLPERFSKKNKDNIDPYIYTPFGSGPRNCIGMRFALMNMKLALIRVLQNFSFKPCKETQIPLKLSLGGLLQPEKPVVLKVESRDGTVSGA

[8] = Stability in Wistar rat plasma assessed as parent compound remaining at 2 uM after 6 hrs by LC-MS/MS analysis relative to initial concentration; assay type: ADME, cell-free; settings: read-out: Stability
[9] = Stability in Beagle dog plasma assessed as parent compound remaining at 2 uM after 6 hrs by LC-MS/MS analysis relative to initial concentration; assay type: ADME, cell-free, Canis lupus familiaris; settings: read-out: Stability
[10] = Stability in cynomolgus monkey plasma assessed as parent compound remaining at 2 uM after 6 hrs by LC-MS/MS analysis relative to initial concentration; assay type: ADME, cell-free, Macaca fascicularis; settings: read-out: Stability
[11] = Stability in human plasma assessed as parent compound remaining at 2 uM after 6 hrs by LC-MS/MS analysis relative to initial concentration; assay type: ADME, cell-free; settings: read-out: Stability
[12] = biological target: CYP2C9 (Homo sapiens, UniProt P11712); experiment: Inhibition of CYP2C9 in human liver microsomes using diclofenac as substrate assessed as residual activity at 5 uM after 20 mins by HPLC analysis; assay type: ADME; settings: probe diclofenac, read-out: Activity
Chain of CYP2C9 (P11712 whole entry): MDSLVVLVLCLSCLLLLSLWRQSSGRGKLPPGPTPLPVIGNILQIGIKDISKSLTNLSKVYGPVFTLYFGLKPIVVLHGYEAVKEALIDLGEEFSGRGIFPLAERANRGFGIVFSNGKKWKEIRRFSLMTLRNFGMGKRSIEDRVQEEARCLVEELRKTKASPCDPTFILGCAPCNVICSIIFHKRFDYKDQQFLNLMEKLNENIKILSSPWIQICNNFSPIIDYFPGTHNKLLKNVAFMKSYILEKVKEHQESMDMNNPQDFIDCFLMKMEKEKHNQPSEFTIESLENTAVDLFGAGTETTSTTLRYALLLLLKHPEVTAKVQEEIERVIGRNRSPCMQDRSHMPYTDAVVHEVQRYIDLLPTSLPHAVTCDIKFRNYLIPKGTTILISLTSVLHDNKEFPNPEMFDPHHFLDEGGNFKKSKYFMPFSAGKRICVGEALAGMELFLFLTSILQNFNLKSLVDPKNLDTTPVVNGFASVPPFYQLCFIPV

SMILES | activity at 20 min, 5 µM [1] | activity at 20 min, 5 µM [2] | activity at 20 min, 5 µM [3] | IC50 [4] | solubility at 20 h, 130 µM [5] | activity at 20 min, 5 µM [6] | activity at 20 min, 5 µM [7] | further results
Cl.Cl.N=C(N)NC(=O)OCc1cccc(-c2cnc(N3CCOCC3)nc2)c1Cl |  |  |  | 600 nM | 8.2 µM |  |  | 
N=C(N)NCCc1cccc(CCc2cnc(N3CCOCC3)nc2)c1 |  |  |  | > 10000 nM |  |  |  | 
Cc1c(COC(=O)NC(=N)N)cccc1-c1cnc(N2CCOCC2)nc1.O=C(O)C(O)C(O)C(=O)O |  |  |  | 410 nM | 34 µM |  |  | 
CN(Cc1cccc(-c2cnc(N3CCOCC3)nc2)c1)C(=O)NC(=N)N |  |  |  | 530 nM |  |  |  | 
N=C(N)Nc1cccc(CCc2cnc(N3CCOCC3)nc2)c1 |  |  |  | > 10000 nM |  |  |  | 
N=C(N)Nc1ccc(CCc2cnc(N3CCOCC3)nc2)cc1 |  |  |  | 5100 nM |  |  |  | 
N=C(N)NC(=O)OCc1cccc(N2CCN(c3cccnc3)CC2)c1F.O=C(O)C(O)C(O)C(=O)O | 96% | 96% | 99% |  | 31 µM | 94% | 61% | 
N=C(N)NC(=O)OCc1cccc(N2CCN(C3CCOCC3)CC2)c1.O=C(O)C(O)C(O)C(=O)O |  |  |  | 110 nM | ≥ 100 µM |  |  | 
Cc1nc(N2CCOCC2)ncc1-c1cccc(COC(=O)NC(=N)N)c1F.O=C(O)C(O)C(O)C(=O)O |  |  |  | 400 nM | 90 µM |  |  | 
Cl.Cl.Cl.N=C(N)NC(=O)OCc1cccc(N2CCC(N3CCOCC3)CC2)c1 |  |  |  | 160 nM | ≥ 100 µM |  |  | 
Cl.Cl.N=C(N)NC(=O)OCc1ccc(F)c(-c2cnc(N3CCOCC3)nc2)c1 |  |  |  | 99 nM | 68 µM |  |  | 
Cl.Cl.Cl.N=C(N)NC(=O)OCc1cccc(N2CCN(c3ccccn3)CC2)c1 |  |  |  | 140 nM | ≥ 100 µM |  |  | 

More lines, in order of falling IC50 [4], values ahead:

activity at 20 min, 5 µM [1] | activity at 20 min, 5 µM [2] | activity at 20 min, 5 µM [3] | IC50 [4] | solubility at 20 h, 130 µM [5] | activity at 20 min, 5 µM [6] | activity at 20 min, 5 µM [7] | SMILES | further results
 |  |  | 77 nM | 17 µM |  |  | N=C(N)NC(=O)OCc1ccc(F)c(-c2cnc(N3CCOCC3)nc2)c1F.N=C(N)NC(=O)OCc1ccc(F)c(-c2cnc(N3CCOCC3)nc2)c1F.O=C(O)C(O)C(O)C(=O)O | 
 |  |  | 56 nM |  |  |  | N=C(N)NC(=O)Cc1cccc(-c2cnc(N3CCOCC3)nc2)c1 | 
 |  |  | 54 nM |  |  |  | N=C(N)NC(=O)Cc1cccc(CCc2cnc(N3CCOCC3)nc2)c1 | 
102% | 93% | 83% | 47 nM | 8.3 µM | 96% | 109% | N=C(N)NC(=O)OCc1cccc(-c2cnc(N3CCOCC3)nc2)c1.O=C(O)C(O)C(O)C(=O)O | remaining at 6 h, 2 µM [8]: 105%; remaining at 6 h, 2 µM [9]: 98.3%; remaining at 6 h, 2 µM [10]: 103%; remaining at 6 h, 2 µM [11]: 101%
96% | 11% | 61% | 45 nM | ≥ 100 µM | 93% | 32% | N=C(N)NC(=O)OCc1cccc(N2CCC(Oc3cccnc3)CC2)c1F.O=C(O)C(O)C(O)C(=O)O | 
91% | 77% | 46% | 40 nM | ≥ 100 µM | 89% | 96% | Cc1ncccc1OC1CN(c2cccc(COC(=O)NC(=N)N)c2F)C1.O=C(O)C(O)C(O)C(=O)O | 
99% | 68% | 92% | 31 nM | ≥ 100 µM | 55% | 64% | Cl.Cl.Cl.N=C(N)NC(=O)OCc1cccc(N2CCN(c3cccnc3)CC2)c1 | activity at 20 min, 5 µM [12]: 101%
 |  |  | 31 nM | ≥ 100 µM |  |  | CN(Cc1cccc(-c2cnc(N3CCOCC3)nc2)c1)C(=O)CN.O=C(O)C(O)C(O)C(=O)O | 
66% | 16% | 78% | 24 nM | ≥ 100 µM | 84% | 56% | N=C(N)NC(=O)OCc1cccc(N2CC(Oc3cccnc3)C2)c1F.N=C(N)NC(=O)OCc1cccc(N2CC(Oc3cccnc3)C2)c1F.O=C(O)C(O)C(O)C(=O)O | 
91% | 13% | 25% | 13 nM | ≥ 100 µM | 86% | 80% | Cl.Cl.Cl.N=C(N)NC(=O)OCc1cccc(N2CCN(c3ccncc3)CC2)c1 | activity at 20 min, 5 µM [12]: 80%
 |  |  | 9.2 nM | 7.5 µM |  |  | Cl.N=C(N)NC(=O)OCc1cccc(-c2cnc(N3CCOCC3)nc2)c1F | 
